# Reference: US8293464B2, “Methods for reducing the internalization of viruses and identification of compounds effective thereof” (Universiteit Gent, priority 2008, dated 2012)
# How the values were obtained:
# [1] = tested on: surface expressed viral antigens in FIPV infected monocytes; test: Internalization inhibition assay of surface expressed viral antigens (antigen-antibody complexes); type: cell-based, feline; settings: each inhibitor at its working concentration; for internalization of viral antigens: 30 min pre-incubation, 30 min with antibodies
# feline monocytes = test: Internalization assay of control ligands (beads, transferrin or albumin) in monocytes; type: cell-based; settings: inhibitor at working concentration; for internalization of a control ligand: control ligand not named
# Procedure: To test the effectiveness of all reagents, a suitable control was used in each experiment. Monocytes seeded on glass coverslips were pre-incubated for 30 minutes at 37° C. with 5% CO2 in the presence of one of the inhibitors. After treatment, the cells were incubated with biotinylated transferrin (Sigma-Aldrich GmbH) or fluorescent 1 μm polystyrene microspheres, FluoSpheres (Molecular Probes-Invitrogen), in presence of the inhibitor. Then, cells were fixed with 1% formaldehyde and permeabilized with 0.1% Triton X-100. The biotinylated transferrin was visualized by incubating the cells with streptavidin-FITC for 1 hour at 37° C. and cells incubated with fluorescent beads were incubated with phalloidin-Texas Red (Molecular Probes-Invitrogen) for 1 hour at 37° C. to visualize the lamellipodia. The glass coverslips were mounted on microscope slides using glycerin-DABCO and analyzed by confocal microscopy. […] Fluorescent beads were considered internalized when they were found inside the cortical actin labeling.
SMILES,internalization of viral antigens (in words) [1],internalization of a control ligand (feline monocytes) [%],internalization of viral antigens [1],internalization of the control ligand beads (feline monocytes)
COc1ccc(S(=O)(=O)N(CCO)c2ccccc2CN(C)C/C=C/c2ccc(Cl)cc2)cc1 [KN-93],unaffected,23±16,–,–
CN(N=O)c1cc(O)ccc1O [dephostatin],–,–,96±23 % of untreated control,2±3 % of untreated control
O=S(=O)(NCCNC/C=C/c1ccc(Br)cc1)c1cccc2cnccc12 [H-89],unaffected,33±29,–,–
CN[C@@H]1C[C@H]2O[C@@](C)([C@@H]1OC)n1c3ccccc3c3c4c(c5c6ccccc6n2c5c31)C(=O)NC4 [staurosporine],–,–,21±2 % of untreated control,23±4 % of untreated control
